Measurements reported in paper PMC8777613, “Effect of Hydroxyl Groups Esterification with Fatty Acids on the Cytotoxicity and Antioxidant Activity of Flavones” (Molecules, 2022).

Key:
[1] = test system: human prostate cancer cells (PC3); test: MTT dye reduction viability test, PC3; type: cell-based; conditions: for IC50 / viability at 10 µM / viability at 20 µM / viability at 40 µM / viability at 60 µM / viability at 80 µM / viability at 100 µM: Homo sapiens; for IC50: 72 h exposure, MTT, mean ± SD, read-out: Cytotoxic activity IC50, PC3; for viability at 10 µM: PC3, 10 µM; for viability at 10 µM / viability at 20 µM / viability at 40 µM / viability at 60 µM / viability at 80 µM / viability at 100 µM: representative MTT result (Table S1 A); for viability at 20 µM: PC3, 20 µM; for viability at 40 µM: PC3, 40 µM; for viability at 60 µM: PC3, 60 µM; for viability at 80 µM: PC3, 80 µM; for viability at 100 µM: PC3, 100 µM, read-out: Cells viability
Protocol: (§1) We have chosen two types of cell culture lines: human prostate cancer cells (PC3) and normal human immortal keratinocyte cells (HaCaT) (Table 1).
(§2) Human prostate cancer cells (PC3) and human immortal keratinocyte cell line from adult human skin (HaCaT) were obtained from American Type Culture Collection (Teddington, UK) and cultured according to its instructions RPMI 1640 (L0490) medium or DMEM (L0102) medium, respectively, in a 95% air and 5% CO2 humidified incubator at 37 °C. Both media (Biowest) were supplemented with 10% fetal bovine serum (FBS), 100 U/mL penicillin and 100 μg/mL streptomycin. 10 mM stock solutions of tested compounds in DMSO were prepared.
(§3) To assess the cells growth inhibition, the MTT dye reduction test was preformed based on the method described by Präbst et al.. Both PC3 and HaCaT cells (1 × 10^3/well) were seeded into 96-well plates and incubated for 24 h to attach to the bottom of the well in appropriate medium (200 μL) and treated with tested compounds (0–100 μM). The medium with compounds was removed after 72 h and MTT (0.5 mg/mL) in fresh growth medium without serum was added to each well. The plates were incubated in dark for 4 h at 37 °C. Then, the solution in each well was removed and refilled with 100 μL DMSO: isopropanol (1:1) to dissolve formazon crystals. The optical density was measured with an UVM 340 (ASYS Hitech GmbH, Austria) microplate reader at 570 nm. Replicates of three wells for each dosage, including vehicle control, were analyzed for each experiment. The experiments were conducted in triplicate. The results are expressed as IC50 values. The value of IC50 was estimated using CompuSyn version 1.0.

[2] = MTT dye reduction viability test, HaCaT; type: cell-based, human; conditions: human; for IC50 at 72 h / viability at 72 h, 10 µM / viability at 72 h, 20 µM / viability at 72 h, 40 µM / viability at 72 h, 60 µM / viability at 72 h, 80 µM / viability at 72 h, 100 µM: HaCaT cells (immortal keratinocytes)
Protocol: as §1, §2, §3

[3] = test system: human immortal keratinocyte cells (HaCaT); test: MTT dye reduction viability test, HaCaT; type: cell-based; conditions: for IC50: 72 h exposure, MTT, mean ± SD, read-out: Cytotoxic activity IC50, HaCaT
Protocol: as §1, §2, §3

rat brain homogenate = test: Lipid peroxidation (MDA/TBA) induced by FeCl2 and ascorbic acid; type: biochemical; conditions: 10 µM compound; for MDA concentration: oxidation by 0.1% FeCl2 and 1 mM ascorbic acid, 1 h 37 °C, control 9.644 ± 1.570
Protocol: The antioxidant potential of the new flavone derivatives was assessed based on the analysis of malondialdehyde concentration formed as a product of lipid oxidation stimulated by iron (II) ions.
After preparation, the brain was placed on an ice plate and washed with cold 0.9% NaCl. 10% (m/v) brain solution was obtained by homogenization in cold 10 mM TRIS-HCl buffer, pH = 7.5. The homogenate was centrifuged (2000 rpm, 10 min, 4 °C) to obtain supernatant 1 (S1).
100 µM stock solutions of test compounds in DMSO were prepared. The test compound solution was added to a […] S1 homogenate to a final concentration of 10 µM.
The oxidation reaction was induced by adding to the samples with or without the test compounds freshly prepared solutions: 0.1% FeCl2 (0.2 mL) and 1 mM ascorbic acid (0.4 mL). After incubation for 1 h at 37 °C, the reaction was stopped by adding 8.1% sodium dodecyl sulfate (SDS) solution. In order to determine the concentration of MDA, the acetic acid/HCl buffer at pH = 3.4 and 120 μL of 0.8% thiobarbituric acid (TBA) solution at pH = 6 were added to the samples. The samples were incubated for 1 h at 100 °C. After incubation, the samples were cooled on ice and centrifuged for 10 min at 4000 RPM. The absorbance was measured at a wavelength of 532 nm. Blank content: 0.5 mL of acetate buffer + 0.5 mL of TBA solution.
Calculation of malondialdehyde (MDA) concentration (Equation (1)):(1) MDA concentration=∆ A532 nm × 1.56 ×10^−6 [nmol MDA/h/g tissue]

[4] = 72 h exposure, MTT, mean ± SD, read-out: Cytotoxic activity IC50, HaCaT
[5] = HaCaT, 10 µM, 72 h, representative MTT result (Table S1 B)
[6] = HaCaT, 20 µM, 72 h, representative MTT result (Table S1 B)
[7] = HaCaT, 40 µM, 72 h, representative MTT result (Table S1 B)
[8] = HaCaT, 60 µM, 72 h, representative MTT result (Table S1 B)
[9] = HaCaT, 80 µM, 72 h, representative MTT result (Table S1 B)
[10] = HaCaT, 100 µM, 72 h, representative MTT result (Table S1 B), read-out: Cells viability

SMILES | IC50 [1] | viability at 10 µM ([1]; 72 h) | viability at 20 µM ([1]; 72 h) | viability at 40 µM ([1]; 72 h) | viability at 60 µM ([1]; 72 h) | viability at 80 µM ([1]; 72 h) | viability at 100 µM ([1]; 72 h) | IC50 at 72 h [2, 4] | viability at 72 h, 10 µM [2, 5] | viability at 72 h, 20 µM [2, 6] | viability at 72 h, 40 µM [2, 7] | viability at 72 h, 60 µM [2, 8] | viability at 72 h, 80 µM [2, 9] | viability at 72 h, 100 µM [2, 10] | IC50 [3] | MDA concentration (rat brain homogenate) | other results
CCC=CCC=CCC=CCCCCCCCC(=O)Oc1ccc2c(c1)C(=O)CC(c1ccccc1)O2 (stereo not shown) [6-Linolenic-Flavanone, 6-hydroxy-flavanone linolenic ester] | 51.4 ± 2.8 µM | 92.5% | 85.9% | 79.5% | 48% | 35.8% | 31.5% | 80 ± 4.75 µM | 95.8% | 75.2% | 53.3% | 38.1% | 25.8% | 23.8% | 44.6 ± 5.89 µM |  | 
CCCCCCCCC=CCCCCCCCC(=O)Oc1ccc2c(c1)C(=O)CC(c1ccccc1)O2 (stereo not shown) [6-Oleic-Flavanone, 6-hydroxy-flavanone oleic ester] | 38.1 ± 3.24 µM | 100% | 70.9% | 41.4% | 19.3% | 13.3% | 6.81% | 53.3 ± 6.87 µM | 97.8% | 70% | 75.7% | 26.4% | 26.5% | 26.5% | 53.3 ± 6.87 µM | 8.326 ± 0.490 mM × 10^−3 | melting point: 46.2 to 47.1 °C
CCCCCCCCCCCCCCCCCC(=O)Oc1ccc2c(c1)C(=O)CC(c1ccccc1)O2 (stereo not shown) [6-Stearic-Flavanone, 6-hydroxy-flavanone stearic ester] | > 100 µM | 96.5% | 106% | 99.6% | 93.9% | 93.6% | 93.7% | 40.6 ± 4.21 µM | 95.4% | 82.5% | 54.7% | 47.8% | 32.5% | 11.7% | 40.6 ± 4.21 µM | 7.875 ± 0.343 mM × 10^−3 | cytotoxic potential in PC3 cells (in words) ([1]; PC3, 0–100 μM, 72 h): no cytotoxic potential
O=c1cc(-c2ccccc2)oc2cc(O)ccc12 [7-Hydroxy-Flavone, 7-hydroxy-flavone, reference compound] | > 100 µM | 123% | 117% | 111% | 95.4% | 65% | 62.7% |  |  |  |  |  |  |  |  | 7.702 ± 1.080 mM × 10^−3 | reduction of PC3 cells viability compared to control cells ([1]; PC3, 72 h, concentration not given): 38%; reduction of the level of MDA compared to the control sample (rat brain homogenate; rat brain homogenate): 20.14%; IC50 [2, 4]: > 100 µM; viability at 10 µM ([2]; HaCaT, 10 µM, 72 h, representative MTT result (Table S1 B), read-out: Cells viability): 93.8%; viability at 20 µM ([2]; HaCaT, 20 µM, 72 h, representative MTT result (Table S1 B), read-out: Cells viability): 65.8%; viability at 40 µM ([2]; HaCaT, 40 µM, 72 h, representative MTT result (Table S1 B), read-out: Cells viability): 69.7%; viability at 60 µM ([2]; HaCaT, 60 µM, 72 h, representative MTT result (Table S1 B), read-out: Cells viability): 96.2%; viability at 80 µM ([2]; HaCaT, 80 µM, 72 h, representative MTT result (Table S1 B), read-out: Cells viability): 97.2%; viability at 100 µM [2, 10]: 92.4%; cytotoxic activity towards HaCaT cells (in words) ([3]; HaCaT, 0–100 μM, 72 h): did not exhibit cytotoxic activity
